Laboratory results taken from article PMC9959130, “Effects of Side Chain and Peptide Bond Modifications on the Targeting Properties of Stabilized Minigastrin Analogs” (Pharmaceuticals, 2023).
Read-outs that look alike come from different tables or passages of the source.

Assays:
[1] = cited from earlier work
Procedure: (−2.33 ± 0.23) > [^111In]In-DOTA-MGS5 (−2.0 ± 0.1) > [^111In]In-DOTA-[2Nal^8]MGS5 (−1.71 ± 0.19) > [^111In]In-DOTA-[DLys^1]MGS5 (−1.31 ± 0.11). […] For the time point of 24 h after incubation, lowest values were found for [^111In] ...

human CCK2R = target: T1, human CCK2R (Homo sapiens, UniProt P32239); test: Calcium mobilization assay (fluo-4 AM) on A431-CCK2R cells; assay type: cell-based; conditions: normalized to 10^−6 M pentagastrin, mean ± SEM of at least three independent experiments in triplicates
T1 construct: expressed in transfected cells; host or cells: A431 human epidermoid carcinoma cells, stably transfected (A431-CCK2R); originally provided by Dr. Luigi Aloj
T1 sequence (P32239 1-447): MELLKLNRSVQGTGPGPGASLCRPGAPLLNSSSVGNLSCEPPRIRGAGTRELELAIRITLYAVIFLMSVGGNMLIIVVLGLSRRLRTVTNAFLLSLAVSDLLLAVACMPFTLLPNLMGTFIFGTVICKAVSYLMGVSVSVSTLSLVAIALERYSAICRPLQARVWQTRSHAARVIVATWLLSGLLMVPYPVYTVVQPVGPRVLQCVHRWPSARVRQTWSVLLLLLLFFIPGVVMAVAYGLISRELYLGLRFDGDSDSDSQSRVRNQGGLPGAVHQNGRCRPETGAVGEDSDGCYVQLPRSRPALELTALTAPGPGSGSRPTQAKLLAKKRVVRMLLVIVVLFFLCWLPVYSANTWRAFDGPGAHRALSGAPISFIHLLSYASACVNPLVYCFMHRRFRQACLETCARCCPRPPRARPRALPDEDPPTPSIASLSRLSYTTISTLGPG
Source text: A431 human epidermoid carcinoma cells overexpressing human CCK2R through stable transfection (A431-CCK2R) and the same cell line transfected with the empty vector (A431-mock) were used for cell assays. The cells are constantly available in our laboratory and were originally provided by Dr. Luigi Aloj. All cell culture media and reagents were obtained from Invitrogen Corporation (Lofer, Austria) or Sigma-Aldrich (Darmstadt, Germany). Dulbecco’s modified Eagle’s medium (DMEM) supplemented with 10% (v/v) fetal bovine serum and 1% of 100x penicillin−streptomycin−glutamine was used for cell culture. The cells were passaged three times per week using a 10x 2.5% trypsin-EDTA solution in a 1:2–1:3 ratio.
Analog-induced receptor activation was evaluated by a calcium mobilization assay using the calcium-sensitive dye fluo-4 AM (ThermoFisher Scientific, Montigny-Le-Bretonneux, France), as previously described. Briefly, A431-CCK2R cells were seeded (60,000/well) in flat clear bottom black 96-well plates (Corning, Bagneaux-sur-Loing, France) coated with poly-L-ornithine (100 µg/mL, 1 h, 37 °C) (Sigma Aldrich, Saint Quentin Fallavier, France). Cytosolic Ca^2+ variations were measured before and after application of 50 µL of graded concentrations of the investigated peptides in the vicinity of the cells, and the effects on Ca^2+ mobilization were measured. Data were background corrected and normalized for the amplitudes caused by the medium alone (0%, no self-effect) or 10^−6 M pentagastrin (100%, maximal Ca^2+ mobilization response). Prism 4.0 software was used to calculate the EC50 values and the results were expressed as mean ± SEM for at least three independent experiments performed in triplicates.

[2] = Distribution coefficient (LogD) in octanol/PBS; assay type: physicochemical; conditions: radiolabeled peptide (111In-labeled where the label names no radiometal); shake-flask octanol/PBS, 100 pmol/mL, 15 min shaking at 1500 rpm, γ-counter; mean ± SD, n = 8
Procedure: The distribution coefficient (LogD) in octanol/PBS was determined by mixing 0.5 mL of the radiolabeled DOTA peptides diluted in PBS (100 pmol/mL) and 0.5 mL octanol in a 1.5 mL microcentrifuge tube (n = 8). After shaking for 15 min (MS3 Basic, IKA, Staufen, Germany) at 1500 rpm and a waiting time of 10 min to ensure appropriate separation of the two phases, 100 µL aliquots of each phase were pipetted into 4.5 mL tubes. The tubes were measured using a γ-counter (2480 Wizard2 3″, PerkinElmer Life Sciences and Analytical Instruments, formerly Wallac Oy, Turku, Finland) and the LogD value was determined using following equation: LogD=Log(cpmoctanol phase/cpmPBS phase)

Complex stability in PBS = assay type: physicochemical; conditions: 1000 pmol/mL in PBS, room temperature, 4 h after incubation, n = 1
Procedure: In vitro stability studies were performed in human serum (n = 2). The radiolabeled peptides (1000 pmol/mL) were incubated at 37 °C and a sample of 100 μL was taken at 1, 4, and 24 h after incubation. After the precipitation of proteins with ACN at 1:1.5 (v/v), centrifugation (14,000 rpm, 2 min, centrifuge 5424, Eppendorf AG, Germany) and dilution with water at 1:1 (v/v), an aliquot of 100 μL of this solution was analyzed by HPLC. Radioligand breakdown was monitored and the percentage of intact radiopeptide was calculated using Chromeleon Dionex Software (Version 7.2.9.11323). Additionally, the radiolabeled peptides (1000 pmol/mL) were incubated in PBS (n = 1) at room temperature to confirm the complex stability as a control.

[3] = Biodistribution in BALB/c nude mice bearing A431-CCK2R/A431-mock xenografts; assay type: in vivo; conditions: female, mouse, iv, 20 pmol, total radioactivity, 20 pmol, gallium-68, 1 h p.i., mean ± SD n = 4; for tissue uptake at 1 h: xenografted BALB/c nude mice, i.v.; for tissue to tissue ratio at 1 h: BALB/c nude mice
Procedure: The overall biodistribution and tumor targeting properties of selected radiolabeled peptides were evaluated in female athymic BALB/c nude mice (Charles River, Sulzfeld, Germany, age of 7 to 9 weeks). After tumor induction with 2 × 10^6 A431-CCK2R or A431-mock cells (subcutaneously injected in 200 μL DMEM into the right and left flank) and a waiting period of 10–14 days (sufficient to achieve tumors of ∼0.25 g), mice were randomly divided into groups of four and treated with a bolus injection of 150 µL of the injectable solution containing the radiolabeled peptide via a lateral tail vein to achieve an injected radioactivity of 150–200 kBq and a total injected peptide amount of ~20 pmol (n = 4 for each radiopeptide). For DOTA-[(N-Me)1Nal^8]MGS5, additional biodistribution studies were performed with gallium-68 (~0.5 MBq, 20 pmol) and lutetium-177 (~0.5 MBq, 20 pmol). The animals were euthanatized by cervical dislocation at 1 h (gallium-68) or 4 h p.i. (indium-111/ lutetium-177). The tumors and other tissues (blood, lung, heart, muscle, spleen, intestine, liver, kidney, stomach, and pancreas) were dissected, weighed, and the radioactivity measured in the γ-counter. The rest of the body and a standard of the solution injected was also measured together with the collected samples. The percentage of injected activity per gram of tissue (% IA/g) and the tumor-to-organ activity ratio of selected tissues were calculated for each mouse and time point studied. Origin software (Microcal Origin 6.1, Northampton, MA, USA) was used for statistical analysis (independent t-test for two populations; significance level p < 0.05).

For CCCC[C@@H](C(=O)N[C@@H](CC(=O)O)C(=O)N[C@@H](Cc1cccc2ccccc12)C(N)=O)N(C)C(=O)[C@H](Cc1c[nH]c2ccccc12)NC(=O)CNC(=O)[C@H](Cc1ccc(O)cc1)NC(=O)[C@H](C)NC(=O)[C@@H](CCC(=O)O)NC(=O)CN1CCN(CC(=O)O)CCN(CC(=O)O)CCN(CC(=O)O)CC1 [DOTA-MGS5, DOTA-DGlu-Ala-Tyr-Gly-Trp-(N-Me)Nle-Asp-1Nal-NH2, reference compound], the LogD [1] is listed as −2.0 ± 0.1 and the EC50 (human CCK2R) is listed as 7.9 ± 1.9 nM.
For CCCC[C@@H](C(=O)N[C@@H](CC(=O)O)C(=O)N(C)[C@@H](Cc1cccc2ccccc12)C(N)=O)N(C)C(=O)[C@H](Cc1c[nH]c2ccccc12)NC(=O)CNC(=O)[C@H](Cc1ccc(O)cc1)NC(=O)[C@H](C)NC(=O)[C@@H](CCC(=O)O)NC(=O)CN1CCN(CC(=O)O)CCN(CC(=O)O)CCN(CC(=O)O)CC1 [[^68Ga]Ga-DOTA-[(N-Me)1Nal^8]MGS5, metal not drawn], the LogD [2] was −2.2 ± 0.1, the “Stability of the DOTA-complex in PBS” value (Complex stability in PBS) was 99.2% and the tissue uptake at 1 h ([3]; BALB/c nude, heart, read-out: Uptake in heart) was 0.95 ± 0.32 %ID/g. The tissue uptake at 1 h ([3]; BALB/c nude, intestine, read-out: Uptake in intestine) was 0.82 ± 0.18 %ID/g, the tissue uptake at 1 h ([3]; BALB/c nude, lung, read-out: Uptake in lung) was 1.61 ± 0.42 %ID/g and the tissue uptake at 1 h ([3]; BALB/c nude, muscle, read-out: Uptake in muscle) was 0.45 ± 0.08 %ID/g. The tissue uptake at 1 h ([3]; BALB/c nude, spleen, read-out: Uptake in spleen) was 1.19 ± 0.25 %ID/g, the tissue to tissue ratio at 1 h ([3]; athymic BALB/c nude, A431-CCK2R xenograft / blood, A431-CCK2R xenograft, read-out: tumor-to-organ ratio: blood) was 6.03 ± 2.26 and the tissue to tissue ratio at 1 h ([3]; athymic BALB/c nude, A431-CCK2R xenograft / kidney, A431-CCK2R xenograft, read-out: tumor-to-organ ratio: kidney) was 2.36 ± 1.14. It also gave a tissue to tissue ratio at 1 h ([3]; athymic BALB/c nude, A431-CCK2R xenograft / stomach, A431-CCK2R xenograft, read-out: tumor-to-organ ratio: stomach) of 10.2 ± 3.5, a tissue uptake at 1 h ([3]; athymic BALB/c nude, A431-CCK2R xenograft, read-out: Uptake in A431-CCK2R xenograft) of 15.7 ± 2.21 %ID/g and a tissue uptake at 1 h ([3]; athymic BALB/c nude, A431-mock xenograft, read-out: Uptake in A431-mock xenograft) of 1.51 ± 0.98 %ID/g. For the same compound, the tissue uptake at 1 h ([3]; athymic BALB/c nude, blood, read-out: Uptake in blood) was 2.82 ± 0.88 %ID/g, the tissue uptake at 1 h ([3]; athymic BALB/c nude, kidneys, read-out: Uptake in kidneys) was 7.7 ± 3.1 %ID/g and the tissue uptake at 1 h ([3]; athymic BALB/c nude, liver, read-out: Uptake in liver) was 2.25 ± 0.55 %ID/g. The tissue uptake at 1 h ([3]; athymic BALB/c nude, pancreas, read-out: Uptake in pancreas) was 0.87 ± 0.29 %ID/g and the tissue uptake at 1 h ([3]; athymic BALB/c nude, stomach, read-out: Uptake in stomach) was 1.63 ± 0.41 %ID/g.
